Results on 13 compounds are retold here after patent publication US10112941B2, “Tricyclic compounds as anticancer agents” (BRISTOL-MYERS SQUIBB COMPANY, priority 2013, dated 2018).

Structures are written as SMILES.

The assay addresses BRD4 (Homo sapiens, UniProt O60885). Nature of the assay: Time Resolved Fluorescence Resonance Energy Transfer (TR-FRET) binding assay, BRD4. To be noted: one of the FRET assays described; read-out: FRET BRD4 IC50. (In general: Time-resolved FRET reads energy transfer from a long-lived donor to a nearby acceptor.)

A word on the IC50: it is the midpoint of a concentration-inhibition curve. As to `Cc1cc(C(C2CCOCC2)n2c3cc(C(C)(C)O)ccc3c3ncc(-c4c(C)nnn4C)cc32)n(C)n1` (single isomer, unassigned) [Example 342, 2-[3-(Dimethyl-1H-1,2,3-triazol-5-yl)-5-[(1,3-dimethyl-1H-pyrazol-5-yl)(oxan-4-yl)methyl]-5H-pyrido[3,2-b]indol-7-yl]propan-2-ol], the 50% inhibitory concentration (IC50) is < 25 nM.

With `[2H]c1c(C([2H])(C2CCOCC2)n2c3cc(C(C)(C)O)ccc3c3ncc(-c4c(C)noc4C([2H])([2H])[2H])cc32)noc1C([2H])([2H])[2H]` (stereo not shown) [Example 327], the IC50 was < 5 nM.

In the case of `COc1nnn(C)c1-c1cnc2c3ccc(C(C)(C)O)cc3n([C@H](c3ccccc3)C3CCOCC3)c2c1` [Example 379, 2-[3-(4-Methoxy-1-Methyl-1H-1,2,3-triazol-5-yl)-5-[(S)-oxan-4-yl(phenyl)methyl]-5H-pyrido[3,2-b]indol-7-yl]propan-2-ol], the 50% inhibitory concentration (IC50) is < 5 nM.

Consider `Cc1noc(C)c1-c1cnc2c3ccc(C(C)(C)O)cc3n(C(c3cccc(F)c3)C3CCOCC3)c2c1` (single isomer, unassigned) [Example 147, 2-[3-(Dimethyl-1,2-oxazol-4-yl)-5-[(3-fluorophenyl)(oxan-4-yl)methyl]-5H-pyrido[3,2-b]indol-7-yl]propan-2-ol], for which the concentration for half-maximal inhibition (IC50) is < 5 nM.

On to `[2H]C([2H])([2H])c1onc(C)c1-c1cnc2c3ccc(C(C)(C)O)cc3n(C([2H])(c3ccncc3F)C3CCOCC3)c2c1` (stereo not shown) [Example 344, 2-{5-[(3-Fluoropyridin-4-yl)(oxan-4-yl)(^2H)methyl]-3-[5-(^2H3)methyl-3-methyl-1,2-oxazol-4-yl]-5H-pyrido[3,2-b]indol-7-yl}propan-2-ol], for which the IC50 was < 5 nM.

With `Cc1noc(C)c1-c1cnc2c3ccc(C(C)(C)O)cc3n([C@H](c3ccccc3)C3CC3)c2c1` [Example 11], the IC50 is < 25 nM.

Consider `Cc1noc(C(C2CCOCC2)n2c3cc(C(C)(C)O)ccc3c3ncc(-c4c(C)nnn4C)cc32)n1` (single isomer, unassigned) [Example 299], for which the 50% inhibitory concentration (IC50) is < 5 nM.

On to `Cc1noc(C)c1-c1cnc2c3ccc(C(C)(C)O)cc3n(C(CCC(F)(F)F)c3cnoc3)c2c1` (single isomer, unassigned) [Example 36, 2-[3-(Dimethyl-1,2-oxazol-4-yl)-5-[4,4,4-trifluoro-1-(1,2-oxazol-4-yl)butyl]-5H-pyrido[3,2-b]indol-7-yl]propan-2-ol], for which the IC50 was < 25 nM.

On to `[2H]C([2H])([2H])c1nnn(C)c1-c1cnc2c3ccc(C(C)(C)O)c(F)c3n(C(c3ccc(F)cn3)C3CCOCC3)c2c1` (single isomer, unassigned) [Example 323], for which the IC50 was < 25 nM.

Turning to `Cc1noc(C)c1-c1cnc2c3ccc(C(C)(C)O)cc3n([C@H](CCC(F)(F)F)c3ccccn3)c2c1` [Example 24], the IC50 was < 1500 nM.

With `[2H]C([2H])([2H])c1nnn(C)c1-c1cnc2c3c(OCC)cc(S(C)(=O)=O)cc3n(C(c3ccccc3)C3CCC(F)(F)CC3)c2c1` [Example 209, 5-{5-[(S)-(4,4-Difluorocyclohexyl)(phenyl)methyl]-9-ethoxy-7-methanesulfonyl-5H-pyrido[3,2-b]indol-3-yl}-4-(^2H3)methyl-1-methyl-1H-1,2,3-triazole], the IC50 was < 5 nM.

With `Cc1nnn(C)c1-c1cnc2c3c(F)cc(C(C)(C)O)cc3n(C(c3cccc(F)c3)C3CCOCC3)c2c1` (single isomer, unassigned) [Example 113, 2-[3-(Dimethyl-1H-1,2,3-triazol-5-yl)-9-fluoro-5-[(3-fluorophenyl)(oxan-4-yl)methyl]-5H-pyrido[3,2-b]indol-7-yl]propan-2-ol], the IC50 was < 1500 nM.

As to `Cc1nnn(C)c1-c1cnc2c3ccc(C(C)(C)O)cc3n(C(c3ncccc3Cl)C3CCOCC3)c2c1` (single isomer, unassigned) [Example 304], the half-maximal inhibitory concentration (IC50) is < 5 nM.
